Laboratory results published in PubChem BioAssay AID1259407 (Chemical Carcinogenesis Research Information System (CCRIS), 2018).
Calls of active or inactive are those of the source. No rule for the calls is given here.

Test system: CCRIS mutagenicity, Ames/micronucleus/aberration tests
Test: CCRIS mutagenicity studies
[1] = Test System: AMES SALMONELLA TYPHIMURIUM, Strain/Indicator: TA98, Metabolic Activation: NONE, Method: PREINCUBATION
[2] = Test System: AMES SALMONELLA TYPHIMURIUM, Strain/Indicator: TA98, Metabolic Activation: RAT, LIVER, S-9, AROCLOR 1254 (10%), Method: PREINCUBATION
[3] = Test System: AMES SALMONELLA TYPHIMURIUM, Strain/Indicator: TA100, Metabolic Activation: NONE, Method: PREINCUBATION
[4] = Test System: AMES SALMONELLA TYPHIMURIUM, Strain/Indicator: TA100, Metabolic Activation: RAT, LIVER, S-9, AROCLOR 1254 (10%), Method: PREINCUBATION

NCCO
mutagenic call (Test System: AMES SALMONELLA TYPHIMURIUM, Strain/Indicator: TA98, Metabolic Activation: HAMSTER, LIVER, S-9, AROCLOR 1254 (10%), Method: PREINCUBATION): inactive; negative | mutagenic call [1]: inactive; negative | mutagenic call (Test System: AMES SALMONELLA TYPHIMURIUM, Strain/Indicator: TA98, Metabolic Activation: RAT LIVER S-9, PHENOBARBITAL AND BETA-NAPHTHOFLAVONE, Method: PREINCUBATION): inactive; negative | mutagenic call [2]: inactive; negative | mutagenic call (Test System: AMES SALMONELLA TYPHIMURIUM, Strain/Indicator: TA100, Metabolic Activation: HAMSTER, LIVER, S-9, AROCLOR 1254 (10%), Method: PREINCUBATION): inactive; negative | mutagenic call [3]: inactive; negative | mutagenic call (Test System: AMES SALMONELLA TYPHIMURIUM, Strain/Indicator: TA100, Metabolic Activation: RAT LIVER S-9, PHENOBARBITAL AND BETA-NAPHTHOFLAVONE, Method: PREINCUBATION): inactive; negative | mutagenic call [4]: inactive; negative | mutagenic call (Test System: AMES SALMONELLA TYPHIMURIUM, Strain/Indicator: TA1535, Metabolic Activation: HAMSTER, LIVER, S-9, AROCLOR 1254 (10%), Method: PREINCUBATION): inactive; negative | mutagenic call (Test System: AMES SALMONELLA TYPHIMURIUM, Strain/Indicator: TA1535, Metabolic Activation: NONE, Method: PREINCUBATION): inactive; negative | mutagenic call (Test System: AMES SALMONELLA TYPHIMURIUM, Strain/Indicator: TA1535, Metabolic Activation: RAT LIVER S-9, PHENOBARBITAL AND BETA-NAPHTHOFLAVONE, Method: PREINCUBATION): inactive; negative | mutagenic call (Test System: AMES SALMONELLA TYPHIMURIUM, Strain/Indicator: TA1535, Metabolic Activation: RAT, LIVER, S-9, AROCLOR 1254 (10%), Method: PREINCUBATION): inactive; negative | mutagenic call (Test System: AMES SALMONELLA TYPHIMURIUM, Strain/Indicator: TA1537, Metabolic Activation: HAMSTER, LIVER, S-9, AROCLOR 1254 (10%), Method: PREINCUBATION): inactive; negative | mutagenic call (Test System: AMES SALMONELLA TYPHIMURIUM, Strain/Indicator: TA1537, Metabolic Activation: NONE, Method: PREINCUBATION): inactive; negative | mutagenic call (Test System: AMES SALMONELLA TYPHIMURIUM, Strain/Indicator: TA1537, Metabolic Activation: RAT LIVER S-9, PHENOBARBITAL AND BETA-NAPHTHOFLAVONE, Method: PREINCUBATION): inactive; negative | mutagenic call (Test System: AMES SALMONELLA TYPHIMURIUM, Strain/Indicator: TA1537, Metabolic Activation: RAT, LIVER, S-9, AROCLOR 1254 (10%), Method: PREINCUBATION): inactive; negative | mutagenic call (Test System: AMES SALMONELLA TYPHIMURIUM, Strain/Indicator: TA1538, Metabolic Activation: NONE, Method: PREINCUBATION): inactive; negative | mutagenic call (Test System: AMES SALMONELLA TYPHIMURIUM, Strain/Indicator: TA1538, Metabolic Activation: RAT LIVER S-9, PHENOBARBITAL AND BETA-NAPHTHOFLAVONE, Method: PREINCUBATION): inactive; negative | mutagenic call (Test System: E.COLI, Strain/Indicator: WP2UVRA, Metabolic Activation: NONE, Method: PREINCUBATION): active; positive | mutagenic call (Test System: E.COLI, Strain/Indicator: WP2UVRA, Metabolic Activation: RAT LIVER S-9, PHENOBARBITAL AND BETA-NAPHTHOFLAVONE, Method: PREINCUBATION): inactive; negative

CC(=O)CC(=O)Nc1ccccc1C
mutagenic call (Test System: AMES SALMONELLA TYPHIMURIUM, Strain/Indicator: TA102, Metabolic Activation: NONE, Method: STANDARD PLATE): inactive; negative | mutagenic call (Test System: AMES SALMONELLA TYPHIMURIUM, Strain/Indicator: TA2638, Metabolic Activation: NONE, Method: STANDARD PLATE): inactive; negative | mutagenic call (Test System: Ames Salmonella typhimurium, Strain/Indicator: TA98, Metabolic Activation: None, Method: Preincubation): inactive; negative | mutagenic call (Test System: Ames Salmonella typhimurium, Strain/Indicator: TA98, Metabolic Activation: Rat, Liver, S9, Sodium phenobarbital and 5,6-benzoflavone (10%), Method: Preincubation): inactive; negative | mutagenic call (Test System: Ames Salmonella typhimurium, Strain/Indicator: TA100, Metabolic Activation: None, Method: Preincubation): inactive; negative | mutagenic call (Test System: Ames Salmonella typhimurium, Strain/Indicator: TA100, Metabolic Activation: Rat, Liver, S9, Sodium phenobarbital and 5,6-benzoflavone (10%), Method: Preincubation): inactive; negative | mutagenic call (Test System: Ames Salmonella typhimurium, Strain/Indicator: TA1535, Metabolic Activation: None, Method: Preincubation): inactive; negative | mutagenic call (Test System: Ames Salmonella typhimurium, Strain/Indicator: TA1535, Metabolic Activation: Rat, Liver, S9, Sodium phenobarbital and 5,6-benzoflavone (10%), Method: Preincubation): inactive; negative | mutagenic call (Test System: Ames Salmonella typhimurium, Strain/Indicator: TA1537, Metabolic Activation: None, Method: Preincubation): inactive; negative | mutagenic call (Test System: Ames Salmonella typhimurium, Strain/Indicator: TA1537, Metabolic Activation: Rat, Liver, S9, Sodium phenobarbital and 5,6-benzoflavone (10%), Method: Preincubation): inactive; negative | mutagenic call (Test System: E. COLI, Strain/Indicator: WP2 (PKM101), Metabolic Activation: NONE, Method: STANDARD PLATE): inactive; negative | mutagenic call (Test System: E. COLI, Strain/Indicator: WP2 UVRA (PKM101), Metabolic Activation: NONE, Method: STANDARD PLATE): inactive; negative | mutagenic call (Test System: E. coli, Strain/Indicator: WP2uvrA/pKM101, Metabolic Activation: None, Method: Preincubation): inactive; negative | mutagenic call (Test System: E. coli, Strain/Indicator: WP2uvrA/pKM101, Metabolic Activation: Rat, Liver, S9, Sodium phenobarbital and 5,6-benzoflavone (10%), Method: Preincubation): inactive; negative

CC1(C)O[C@@H]1COc1c2occc2cc2ccc(=O)oc12
mutagenic call (Test System: AMES SALMONELLA TYPHIMURIUM, Strain/Indicator: TA92, Metabolic Activation: NONE, Method: SPOT TEST): inactive; negative | mutagenic call (Test System: AMES SALMONELLA TYPHIMURIUM, Strain/Indicator: TA92, Metabolic Activation: RAT, LIVER, S-9, AROCLOR 1254, Method: SPOT TEST): inactive; negative | mutagenic call (Test System: AMES SALMONELLA TYPHIMURIUM, Strain/Indicator: TA94, Metabolic Activation: NONE, Method: SPOT TEST): inactive; negative | mutagenic call (Test System: AMES SALMONELLA TYPHIMURIUM, Strain/Indicator: TA94, Metabolic Activation: RAT, LIVER, S-9, AROCLOR 1254, Method: SPOT TEST): inactive; negative | mutagenic call (Test System: AMES SALMONELLA TYPHIMURIUM, Strain/Indicator: TA97, Metabolic Activation: NONE, Method: SPOT TEST): inactive; negative | mutagenic call (Test System: AMES SALMONELLA TYPHIMURIUM, Strain/Indicator: TA97, Metabolic Activation: RAT, LIVER, S-9, AROCLOR 1254, Method: SPOT TEST): inactive; negative | mutagenic call (Test System: AMES SALMONELLA TYPHIMURIUM, Strain/Indicator: TA98, Metabolic Activation: NONE, Method: SPOT TEST): inactive; negative | mutagenic call (Test System: AMES SALMONELLA TYPHIMURIUM, Strain/Indicator: TA98, Metabolic Activation: RAT, LIVER, S-9, AROCLOR 1254, Method: SPOT TEST): inactive; negative | mutagenic call (Test System: AMES SALMONELLA TYPHIMURIUM, Strain/Indicator: TA100, Metabolic Activation: NONE, Method: SPOT TEST): inactive; negative | mutagenic call (Test System: AMES SALMONELLA TYPHIMURIUM, Strain/Indicator: TA100, Metabolic Activation: RAT, LIVER, S-9, AROCLOR 1254, Method: SPOT TEST): inactive; negative | mutagenic call (Test System: AMES SALMONELLA TYPHIMURIUM, Strain/Indicator: TA102, Metabolic Activation: NONE, Method: SPOT TEST): inactive; negative | mutagenic call (Test System: AMES SALMONELLA TYPHIMURIUM, Strain/Indicator: TA102, Metabolic Activation: RAT, LIVER, S-9, AROCLOR 1254, Method: SPOT TEST): inactive; negative

c1ccc2sc(SN3CCOCC3)nc2c1
mutagenic call (Test System: AMES SALMONELLA TYPHIMURIUM, Strain/Indicator: TA98, Metabolic Activation: NONE, Method: STANDARD PLATE): inactive; negative | mutagenic call (Test System: AMES SALMONELLA TYPHIMURIUM, Strain/Indicator: TA98, Metabolic Activation: S-9, Method: STANDARD PLATE): inactive; negative | mutagenic call (Test System: AMES SALMONELLA TYPHIMURIUM, Strain/Indicator: TA100, Metabolic Activation: NONE, Method: STANDARD PLATE): inactive; negative | mutagenic call (Test System: AMES SALMONELLA TYPHIMURIUM, Strain/Indicator: TA100, Metabolic Activation: S-9, Method: STANDARD PLATE): inactive; negative

O=c1c2[nH]c3ccccc3c2nnn1/N=C/c1ccc([N+](=O)[O-])cc1
mutagenic call (Test System: AMES SALMONELLA TYPHIMURIUM, Strain/Indicator: TA97, Metabolic Activation: NONE, Method: PREINCUBATION): active; positive | mutagenic call (Test System: AMES SALMONELLA TYPHIMURIUM, Strain/Indicator: TA97, Metabolic Activation: RAT, LIVER, S-9, AROCLOR 1254 (10%), Method: PREINCUBATION): active; positive | mutagenic call [1]: active; positive | mutagenic call [2]: active; positive | mutagenic call [3]: active; positive | mutagenic call [4]: active; positive | mutagenic call (Test System: AMES SALMONELLA TYPHIMURIUM, Strain/Indicator: TA102, Metabolic Activation: NONE, Method: PREINCUBATION): inactive; negative | mutagenic call (Test System: AMES SALMONELLA TYPHIMURIUM, Strain/Indicator: TA102, Metabolic Activation: RAT, LIVER, S-9, AROCLOR 1254 (10%), Method: PREINCUBATION): inactive; negative
